This is an account of results in patent US9120804B2, “8-substituted 2-amino-[1,2,4] triazolo [1, 5-A] pyrazines as Syk tryrosine kinase inhibitors and GCN2 serin kinase inhibitors” (Merck Patent GmbH, priority 2012, dated 2015).

For one assay, the target named is T1, SYK (Homo sapiens, UniProt P43405).
T1 construct: 2.5 nM SYK, 400 nM Biotin-Aha-Aha-KEDPDYEWPSAKK
The assay is described as follows: SYK flash plate assay (enzyme assay). The format is biochemical. Summed up:
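Radiometric Flashplate format: biotinylated peptide substrate (400 nM) and 33P-labelled ATP (10 μM) react with 2.5 nM enzyme for 1 hour at 30 °C in Hepes buffer, pH 7.5. After EDTA quench and washing, counts are taken; staurosporine defines non-specific signal, and IC50 values are derived.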

In another assay the target is GCN2 (Homo sapiens, UniProt Q9P2K8). The assay can be described thus: GCN2 enzyme assay. The format is biochemical.
Chain of GCN2 (Q9P2K8 whole entry): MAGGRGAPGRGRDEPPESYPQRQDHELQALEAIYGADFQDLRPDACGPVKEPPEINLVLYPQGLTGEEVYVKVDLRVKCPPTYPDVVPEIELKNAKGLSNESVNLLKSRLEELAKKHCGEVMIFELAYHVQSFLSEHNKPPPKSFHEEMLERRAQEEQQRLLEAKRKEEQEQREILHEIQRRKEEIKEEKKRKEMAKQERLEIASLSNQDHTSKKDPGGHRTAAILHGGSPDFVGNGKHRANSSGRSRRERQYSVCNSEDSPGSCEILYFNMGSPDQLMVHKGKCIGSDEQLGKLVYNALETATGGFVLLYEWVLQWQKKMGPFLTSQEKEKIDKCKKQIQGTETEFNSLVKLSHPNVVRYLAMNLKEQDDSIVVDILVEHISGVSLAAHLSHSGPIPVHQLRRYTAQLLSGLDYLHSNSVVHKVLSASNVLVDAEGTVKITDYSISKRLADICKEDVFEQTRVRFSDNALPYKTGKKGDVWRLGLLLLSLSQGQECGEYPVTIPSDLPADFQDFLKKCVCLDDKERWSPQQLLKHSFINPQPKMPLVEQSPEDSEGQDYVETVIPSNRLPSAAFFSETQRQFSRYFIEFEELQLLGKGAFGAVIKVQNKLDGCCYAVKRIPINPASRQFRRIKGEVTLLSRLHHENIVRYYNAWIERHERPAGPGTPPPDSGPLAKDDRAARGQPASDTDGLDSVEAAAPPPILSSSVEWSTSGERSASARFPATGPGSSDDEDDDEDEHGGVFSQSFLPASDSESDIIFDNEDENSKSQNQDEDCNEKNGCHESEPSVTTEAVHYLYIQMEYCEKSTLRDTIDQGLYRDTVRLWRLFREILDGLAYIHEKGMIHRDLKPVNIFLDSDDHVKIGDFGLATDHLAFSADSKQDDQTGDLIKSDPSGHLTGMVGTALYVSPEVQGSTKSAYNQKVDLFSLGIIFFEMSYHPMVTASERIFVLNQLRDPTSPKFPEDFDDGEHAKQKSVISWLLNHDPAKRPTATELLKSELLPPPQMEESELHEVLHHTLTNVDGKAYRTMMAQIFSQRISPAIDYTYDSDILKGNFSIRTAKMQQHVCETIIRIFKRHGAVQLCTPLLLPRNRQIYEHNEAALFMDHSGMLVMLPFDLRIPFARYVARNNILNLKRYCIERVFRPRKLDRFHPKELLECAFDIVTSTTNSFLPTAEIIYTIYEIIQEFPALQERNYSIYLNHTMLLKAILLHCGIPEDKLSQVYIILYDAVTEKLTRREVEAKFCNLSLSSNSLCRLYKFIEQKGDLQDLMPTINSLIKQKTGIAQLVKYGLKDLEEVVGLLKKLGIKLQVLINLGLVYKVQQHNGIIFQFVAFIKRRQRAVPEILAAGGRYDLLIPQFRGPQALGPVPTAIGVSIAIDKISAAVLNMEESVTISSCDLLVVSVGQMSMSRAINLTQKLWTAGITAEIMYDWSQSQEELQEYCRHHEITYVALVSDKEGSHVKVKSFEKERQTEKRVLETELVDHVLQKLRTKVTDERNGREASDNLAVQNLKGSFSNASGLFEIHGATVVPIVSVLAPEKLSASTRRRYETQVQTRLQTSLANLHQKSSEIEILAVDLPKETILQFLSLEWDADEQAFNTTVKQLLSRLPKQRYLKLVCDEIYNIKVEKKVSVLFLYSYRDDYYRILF

The structures appear in SMILES notation. Some results are limits rather than exact numbers.

By IC50 is commonly meant the concentration that inhibits the measured activity by half. A low value points to greater potency. Regarding `CC1(C)C(=O)Nc2cc(Nc3nc4c(N5CC(O)C5)nccn4n3)ccc21` [C74, 6-[8-(3-hydroxy-azetidin-1-yl)-[1,2,4]triazolo[1,5-a]pyrazin-2-ylamino]-3,3-dimethyl-1,3-dihydro-indol-2-one], the IC50 was 0.1 to 0.3 µM at SYK and 3 to 50 µM at GCN2.
As to `CN(c1nccn2nc(Nc3ccc4c(c3)NC(=O)C4(C)C)nc12)C1CCCCC1` [C78, 6-[8-(cyclohexyl-methyl-amino)-[1,2,4]triazolo[1,5-a]pyrazin-2-ylamino]-3,3-dimethyl-1,3-dihydro-indol-2-one], the IC50 against SYK was 0.3 to 3 µM; on GCN2, 3 to 50 µM.
With `Cn1cc(-c2nccn3nc(Nc4ccc5c(c4)NC(=O)C(C)(C)O5)nc23)cn1` [C80, 2,2-dimethyl-6-[8-(1-methyl-1H-pyrazol-4-yl)-[1,2,4]triazolo[1,5-a]pyrazin-2-ylamino]-4H-benzo[1,4]oxazin-3-one], the IC50 at SYK lay within 0.1 to 0.3 µM; against GCN2, 3 to 50 µM.
Regarding `CC1(C)C(=O)Nc2cc(Nc3nc4c(N5CCC6(COC6)C5)nccn4n3)ccc21` [C81, 3,3-dimethyl-6-[8-(2-oxa-6-aza-spiro[3.4]oct-6-yl)-[1,2,4]triazolo[1,5-a]pyrazin-2-ylamino]-1,3-dihydro-indol-2-one], the IC50 on SYK was below 0.1 µM; against GCN2 it was 3 to 50 µM.
As for `CC(C)C1(O)C(=O)Nc2cc(Nc3nc4c(-c5cnn(C)c5)nccn4n3)ccc21` (centres unmarked) [C82, 3-hydroxy-3-isopropyl-6-[8-(1-methyl-1H-pyrazol-4-yl)-[1,2,4]triazolo[1,5-a]pyrazin-2-ylamino]-1,3-dihydro-indol-2-one], the values for the IC50 at SYK and against GCN2 were 0.1 to 0.3 µM and 0.3 to 3 µM, respectively.
Turning to `CC1(C)C(=O)Nc2cc(Nc3nc4c(N5CC[C@H](O)C5)nccn4n3)ccc21` [C83, 6-[8-((S)-3-hydroxy-pyrrolidin-1-yl)-[1,2,4]triazolo[1,5-a]pyrazin-2-ylamino]-3,3-dimethyl-1,3-dihydro-indol-2-one], the half-maximal inhibitory concentration (IC50) was in the range of 0.1 to 0.3 µM on SYK and 3 to 50 µM on GCN2.
Consider `CC1(C)C(=O)Nc2cc(Nc3nc4c(N5CCC[C@H]5CO)nccn4n3)ccc21` [C84, 6-[8-((S)-2-hydroxymethyl-pyrrolidin-1-yl)-[1,2,4]triazolo[1,5-a]pyrazin-2-ylamino]-3,3-dimethyl-1,3-dihydro-indol-2-one], for which the IC50 against SYK was in the range of 0.1 to 0.3 µM; against GCN2 it was 3 to 50 µM.
For `CC1(C)C(=O)Nc2cc(Nc3nc4c(N[C@H]5CCCNC5)nccn4n3)ccc21` [C85, 3,3-dimethyl-6-[8-((S)-piperidin-3-ylamino)-[1,2,4]triazolo[1,5-a]pyrazin-2-ylamino]-1,3-dihydro-indol-2-one], the figures for the IC50 against SYK and against GCN2 were below 0.1 µM and 3 to 50 µM, respectively.
Consider `CC1(C)C(=O)Nc2cc(Nc3nc4c(N5CC[C@H](N)C5)nccn4n3)ccc21` [C86, 6-[8-((S)-3-amino-pyrrolidin-1-yl)-[1,2,4]triazolo[1,5-a]pyrazin-2-ylamino]-3,3-dimethyl-1,3-dihydro-indol-2-one], for which the figures for the half-inhibitory concentration (IC50) against SYK and on GCN2 were 0.3 to 3 µM and 3 to 50 µM, respectively.
As for `CN(c1nccn2nc(Nc3ccc4c(c3)NC(=O)C4(C)C)nc12)C1CCCNC1` (centres unmarked) [C88, 3,3-dimethyl-6-[8-(methyl-piperidin-3-yl-amino)-[1,2,4]triazolo[1,5-a]pyrazin-2-ylamino]-1,3-dihydro-indol-2-one], the IC50 at SYK lay within 0.3 to 3 µM; against GCN2, 3 to 50 µM.
For `CC1(C)C(=O)Nc2cc(Nc3nc4c(N5CC6(COC6)C5)nccn4n3)ccc21` [C91, 3,3-dimethyl-6-[8-(2-oxa-6-aza-spiro[3.3]hept-6-yl)-[1,2,4]triazolo[1,5-a]pyrazin-2-ylamino]-1,3-dihydro-indol-2-one] the same measures were below 0.1 µM and 3 to 50 µM.
For `CC1(C)C(=O)Nc2cc(Nc3nc4c(N5CCC[C@@H](N)C5)nccn4n3)ccc21` [C94, 6-[8-((R)-3-amino-piperidin-1-yl)-[1,2,4]triazolo[1,5-a]pyrazin-2-ylamino]-3,3-dimethyl-1,3-dihydro-indol-2-one], the IC50 was below 0.1 µM against SYK and 3 to 50 µM against GCN2.
For `CC1(C)C(=O)Nc2cc(Nc3nc4c(N5CCC6(CC(=O)NC6=O)C5)nccn4n3)ccc21` (centres unmarked) [C95, 7-[2-(3,3-dimethyl-2-oxo-2,3-dihydro-1H-indol-6-ylamino)-[1,2,4]triazolo[1,5-a]pyrazin-8-yl]-2,7-diaza-spiro[4.4]nonane-1,3-dione] the same measures were below 0.1 µM and 3 to 50 µM.
`CC1(C)C(=O)Nc2cc(Nc3nc4c(N5CCC[C@H](N)C5)nccn4n3)ccc21` [C99, 6-[8-((S)-3-amino-piperidin-1-yl)-[1,2,4]triazolo[1,5-a]pyrazin-2-ylamino]-3,3-dimethyl-1,3-dihydro-indol-2-one]: the IC50 against SYK was below 0.1 µM; on GCN2, 3 to 50 µM.
The corresponding values for `CN(c1nccn2nc(Nc3ccc4c(c3)NC(=O)C4(C)C)nc12)C1CCOCC1` [C101, 3,3-dimethyl-6-{8-[methyl-(tetrahydro-pyran-4-yl)-amino]-[1,2,4]triazolo[1,5-a]pyrazin-2-ylamino}-1,3-dihydro-indol-2-one] are 0.1 to 0.3 µM and 3 to 50 µM.
As for `CC1(C)C(=O)Nc2cc(Nc3nc4c(N5CCc6[nH]cnc6C5)nccn4n3)ccc21` [C103, 3,3-dimethyl-6-[8-(1,4,6,7-tetrahydro-imidazo[4,5-c]pyridin-5-yl)-[1,2,4]triazolo[1,5-a]pyrazin-2-ylamino]-1,3-dihydro-indol-2-one], the IC50 was below 0.1 µM at SYK and 3 to 50 µM on GCN2.
As for `CC1(C)C(=O)Nc2cc(Nc3nc4c(N5CCC(N6CCNC6=O)CC5)nccn4n3)ccc21` [C104, 3,3-dimethyl-6-{8-[4-(2-oxo-imidazolidin-1-yl)-piperidin-1-yl]-[1,2,4]triazolo[1,5-a]pyrazin-2-ylamino}-1,3-dihydro-indol-2-one], the IC50 on SYK lay within 0.3 to 3 µM; at GCN2, 3 to 50 µM.
For `CC1(C)C(=O)Nc2cc(Nc3nc4c(N5CCC(F)(F)C5)nccn4n3)ccc21` [C105, 6-[8-(3,3-difluoro-pyrrolidin-1-yl)-[1,2,4]triazolo[1,5-a]pyrazin-2-ylamino]-3,3-dimethyl-1,3-dihydro-indol-2-one] the same measures were below 0.1 µM and 3 to 50 µM.
As for `CC1(C)C(=O)Nc2cc(Nc3nc4c(N5CCC6(C5)NC(=O)NC6=O)nccn4n3)ccc21` (centres unmarked) [C108, 7-[2-(3,3-dimethyl-2-oxo-2,3-dihydro-1H-indol-6-ylamino)-[1,2,4]triazolo[1,5-a]pyrazin-8-yl]-1,3,7-triaza-spiro[4.4]nonane-2,4-dione], the 50% inhibitory concentration (IC50) was below 0.1 µM at SYK and 3 to 50 µM against GCN2.
For `Cn1cc(-c2nccn3nc(Nc4ccc5cc[nH]c5c4)nc23)cn1` [C111] the same measures were 0.1 to 0.3 µM and 0.3 to 3 µM.
As for `Cn1cc(-c2nccn3nc(Nc4ccc5c(C(=O)C(F)(F)F)c[nH]c5c4)nc23)cn1` [C112, 2,2,2-trifluoro-1-{6-[8-(1-methyl-1H-pyrazol-4-yl)-[1,2,4]triazolo[1,5-a]pyrazin-2-ylamino]-1H-indol-3-yl}-ethanone], the values for the IC50 on SYK and against GCN2 were 0.3 to 3 µM and 3 to 50 µM, respectively.
With `Cn1cc(-c2nccn3nc(Nc4ccc5c(C(C)(O)C(F)(F)F)c[nH]c5c4)nc23)cn1` (centres unmarked) [C113, 1,1,1-trifluoro-2-{6-[8-(1-methyl-1H-pyrazol-4-yl)-[1,2,4]triazolo[1,5-a]pyrazin-2-ylamino]-1H-indol-3-yl}-propan-2-ol], the IC50 on SYK was below 0.1 µM; at GCN2 it was 0.3 to 3 µM.
